Here are results for one compound from ChEMBL document CHEMBL2040759, “Design, synthesis and anticancer activity of nitric oxide donating/chalcone hybrids” (2012).

This experiment has as its system UACC-62. The experiment is described as follows: Growth inhibition of human UACC62 cells assessed as cell growth at 10^-5 M after 48 hrs by SRB assay. It counts as functional. Conditions: UACC-62, 48 h, read-out: Activity.

Molecules are shown by their SMILES.

`C/C(=N\O)c1ccc(OCC(=O)Nc2ccc(C(=O)/C=C/c3ccc(Cl)cc3)cc2)cc1`: the growth at 10 µM came to 37.5%.
